Measured values: patent US20100291706A1, “DYE CONJUGATES AND METHODS OF USE” (Millipore Corporation, priority 2009, published 2010)

Assay: Absorbance spectra of cyanine dye stocks
Format: physicochemical
Settings: free dye
Protocol: Phycoerythrin conjugates: NGyS, NGy7 and Gy5 dye stocks are resuspended, their absorbances determined and their concentrations calculated. Phycoerythrin (PE) aliquots (2 nmoles) are treated in 0.5 M sodium carbonate pH 9.0 for 1.5 hr at room temperature with: a) 1:15, 1:30, 1:50 or 1:80 fold molar excesses of NGyS; b) 1:15 or 1:30 fold molar excesses of NGy7; or c) 1:30 or 1:50 molar excesses of Gy5. After conjugation, each reaction mixture is loaded on a PD-10 column and eluted with PBS. Fractions containing protein are pooled together for each mixture. Absorbance and fluorescence spectra of the products are obtained and energy transfer efficiency assessed.
Streptavidin conjugates: The concentration of a dye solution is determined through absorbance readings of appropriate dye dilutions. Streptavidin is treated with a molar excess (e.g., 20 fold excess) of dye in sodium carbonate buffer (pH 9.0) for one hour. After conjugation, the mixture is purified on a PD-10 column using PBS as an eluent buffer, and 0.5 mL fractions are collected. Major fractions containing the streptavidin-dye conjugate are pooled together and absorbance and emission spectra are acquired.

absorption maximum: 751.8 nm
SMILES: CCN1C(=CC=CC=CC=CC2=[N+](CCCCCC(=O)O)c3ccc(S(=O)(=O)O)cc3C2(C)C)C(C)(C)c2cc(S(=O)(=O)[O-])ccc21 [Cy7]
